Measured values published in PubChem BioAssay (NCI).
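48-hour exposure; five concentrations; linearly interpolated endpoints. The concentration for 50% growth inhibition is given as GI50. Definition used: TGI = concentration required for complete inhibition of growth.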

How the values were obtained:
Test in all cases: growth of human tumour cells (NCI), 48 h
[1] = test system: HL-60(TB) leukemia
[2] = test system: KM12 colon
[3] = test system: HCC-2998 colon
[4] = test system: HOP-18 NSCLC
[5] = test system: SF-295 CNS
[6] = test system: SNB-75 CNS
[7] = test system: 786-0 renal
[8] = test system: M14 melanoma
[9] = test system: OVCAR-5 ovarian
[10] = test system: SNB-78 CNS

Compound	GI50 [1] [µM]	TGI [1] [µM]	GI50 [2] [µM]	TGI [2] [µM]	GI50 [3] [µM]	TGI [3] [µM]	GI50 [4] [µM]	TGI [4] [µM]	GI50 [5] [µM]	TGI [5] [µM]	GI50 [6] [µM]	TGI [6] [µM]	GI50 [7] [µM]	TGI [7] [µM]	GI50 [8] [µM]	TGI [8] [µM]	GI50 [9] [µM]	TGI [9] [µM]	TGI [10] [µM]
[pH]1p2[pH]p3p1p3[pH]2.c1cc[c]([Ge]([c]2ccccc2)[c]2ccccc2)cc1.c1cc[c]([Ge]([c]2ccccc2)[c]2ccccc2)cc1.c1cc[c]([Ge]([c]2ccccc2)[c]2ccccc2)cc1	15.5	57.3	15.1	33.7	17	31	14.3	29	21.2	42.9	10.1	32.4	17.1	32.3	13.6	27.3	18.2	34.1	–
Oc1ccc(I)c2cccnc12	–	5.76	–	> 100	–	–	–	47.7	–	30.1	–	–	–	> 100	–	25.4	–	> 100	> 100
O=c1[nH]c(-c2ccccc2)nc2cc([N+](=O)[O-])c(/C(Cl)=C/c3ccccc3)cc12	–	–	–	> 100	–	> 100	–	–	–	53.5	–	53.1	–	> 100	–	–	–	> 100	> 100
CC(=O)[CH-]C(=O)c1ccccc1.CC(=O)[CH-]C(=O)c1ccccc1.CC[C@H](CCC(C)[C@H]1CCC2[C@@H]3CC=C4C[C@@H]([O-])CC[C@]4(C)C3CC[C@@]21C)C(C)C.CC[C@H](CCC(C)[C@H]1CCC2[C@@H]3CC=C4C[C@@H]([O-])CC[C@]4(C)C3CC[C@@]21C)C(C)C.Cl.[Ti+4] (some centres not stated)	–	> 25	–	> 25	–	> 25	> 25	> 25	–	> 25	–	> 25	–	> 25	–	> 25	–	> 25	–
CC(=O)NNc1nc(C)c(C(=O)/C=C/c2ccc(N(C)C)cc2)s1	–	> 100	–	> 100	–	> 100	–	> 100	–	> 100	–	> 100	–	> 100	–	–	–	> 100	> 100
C=CCc1cc(OC)c(O)c(C(=O)/C=C/c2ccc(OC)c(OC)c2)c1	–	38	–	44.9	–	38.6	–	–	–	74.1	–	59.3	–	35.9	–	31.7	–	45.4	> 100
COc1ccc(C(=O)C(c2ccc(OC)cc2)C2(O)C(=O)Nc3c(Cl)cc(Cl)cc32)cc1 (configuration not stated)	–	19.7	–	36.9	–	–	–	44.8	–	39.9	–	58.6	–	29	–	33.6	–	40.9	57.7
O=C1CC[C@@H](S(=O)(=O)c2ccccc2)[C@H](/C=C/c2ccccc2)O1	–	> 100	–	> 100	–	> 100	–	> 100	–	> 100	–	> 100	–	> 100	–	> 100	–	> 100	–
Cc1[nH]c2ccccc2c1/C=C/c1c(C)[nH]c2ccccc12	–	> 100	–	> 100	–	> 100	–	–	–	> 100	–	> 100	–	> 100	–	> 100	–	> 100	> 100
CCOC(=O)C1(C)C2=CC=C(O2)C(C)(C)C2=CC=C(O2)C(C)(C)C2=CC=C(O2)C(C)(C)C2=CC=C1O2	–	> 100	–	> 100	–	> 100	–	> 100	–	> 100	–	–	–	> 100	–	–	–	> 100	> 100
Cc1ccc(/C=C(/C#N)n2nnc3cccc(F)c32)cc1	0.295	4.42	0.332	5.16	1.11	5.15	–	–	0.368	7.39	0.212	0.623	0.384	14.1	0.287	22.1	0.673	9.12	–
CCN(CC)CCOc1ccc2c(-c3ccccc3)c(-c3ccc(OC)cc3)c(=O)oc2c1	1.7	3.98	3.83	14.1	4.22	15	–	–	1.69	3.62	3.69	16.7	2.22	5.37	1.94	3.66	12	24.9	–
NNC(=O)N/N=C(/CC1(O)C(=O)Nc2ccc(Br)cc21)c1ccccc1 (configuration not stated)	–	51.7	–	87.5	–	–	–	–	–	> 100	–	> 100	–	> 100	–	> 100	–	–	> 100
O=C(Nc1nc2ccc(OC(F)(F)F)cc2s1)c1ccc(F)cc1	3.04	9.29	2.69	> 100	3.91	> 100	–	–	2.54	9.35	3.45	53.9	3.47	> 100	4.4	> 100	3.62	27.6	–
N=C1C(c2nc3ccccc3c(=O)[nH]2)=C(O)CN1c1cccc(Cl)c1	2.34	> 100	2.01	> 100	34.3	> 100	–	–	3.23	17.8	3.83	> 100	4.05	> 100	5.26	> 100	> 30.8	> 100	–
Cn1cc(Nc2nccc(-c3ccc4c(c3)CN(C3COC3)CC[C@H]4NC(=O)c3cn(C(C)(C)C)nn3)n2)cn1	> 100	> 100	72.6	> 100	> 100	> 100	–	–	> 100	> 100	24.4	> 100	50.5	> 100	36.6	> 100	45.2	> 100	–
O=C1NC(=NCCc2ccccc2F)S/C1=C\c1ccc2ncccc2c1	9.14	22.1	4.02	> 25	8.55	> 25	–	–	7.06	> 25	5.34	19.1	8.71	> 25	8.42	> 25	> 20.4	> 25	–
C=C1C2CCCC1C1(S(C)(=O)=O)CCCCC21O (configuration not stated)	–	–	–	> 100	–	> 100	–	> 100	–	> 100	–	> 100	–	> 100	–	> 100	–	> 100	> 100
Cc1cc2c(C(C)C)c(O)c(O)c(/C=N/O)c2c(O)c1-c1c(C)cc2c(C(C)C)c(O)c(O)c(/C=N/O)c2c1O	2.61	10.6	2.36	8.52	2.29	6.88	–	–	2.61	13.3	3.57	17.4	3.22	13.3	2.46	10.1	3.08	12.9	–
COC1(OC)CCC2(C)OC(c3ccccc3)C1O2 (configuration not stated)	–	> 100	–	> 100	–	> 100	–	–	–	> 100	–	> 100	–	> 100	–	> 100	–	> 100	–
CC(=O)NC(CCc1ccc(Cl)c(Cl)c1)c1cccc(O)c(=O)c1 (configuration not stated)	0.833	5.3	0.825	17.8	1.47	13.9	–	–	0.399	10	1.87	17.1	0.591	12	0.434	3.09	1.58	21.8	–
CC(C)(Oc1cccc(N2CCC[C@@H](C(=O)N(Cc3ccc(-c4cn[nH]c4)cc3)C3CC3)C2)c1)C(=O)N1CCNCC1	13.8	> 100	14.8	28.8	3.06	10.7	–	–	12.5	26	1.56	18.3	11.7	25	14.9	30.1	16.6	32.2	–
NC(N)=NCCCC(Nc1c2ccccc2nc2ccccc12)C(=O)O (configuration not stated)	–	> 100	–	> 100	–	> 100	–	–	–	> 100	–	> 100	–	> 100	–	> 100	–	> 100	–
COC(=O)COc1ccccc1/C=C1/N=C(c2ccccc2)N(c2c(C)n(C)n(-c3ccccc3)c2=O)C1=O	> 100	> 100	79.6	> 100	47.3	> 100	–	–	> 100	> 100	> 100	> 100	> 100	> 100	> 100	> 100	> 100	> 100	–
COc1cc(C(=O)/C=C/c2cccnc2Nc2ccc(Cl)cc2)cc(OC)c1OC	1.59	5.14	1.83	3.55	1.52	2.89	–	–	1.93	3.97	1.63	3	1.46	2.78	1.75	3.22	1.74	3.32	–
CCc1nc(N)nc(N)c1-c1ccc(N2CCNCC2)c([N+](=O)[O-])c1	–	> 85.2	–	> 100	–	58.8	–	–	–	> 100	–	> 95.8	–	> 74.3	–	31.9	–	> 100	–
